# Paper PMC4631615 (Bipolar disorders, 2015)
# Where “and” joins values, the source holds several entries; their conditions need not be identical. Identical values can stand only once. Marks after values point to notes of the source that are not given here.
# Assays:
# SWV mouse fetuses [1] = experiment: Skeletal examination of fetuses; assay type: in vivo
# NMRI mice = settings: injected on GD 8 with 3 mmol/kg; cited from earlier work
# [2] = test system: patients with bipolar disorder; settings: Phase IIb; cited from earlier work
# pregnant SWV mice [3] = experiment: Maternal body weight and weight gain, teratogenicity study; assay type: in vivo, mouse; settings: mean ± SD
# acyl-CoA synthetase 4 = settings: cited from earlier work
# mouse = settings: source not given; cited from earlier work
# SWV mouse fetuses [4] = settings: mouse, in vivo
# [5] = test system: histone deacetylase (HDAC); settings: cited from earlier work
# pregnant SWV mice [6] = experiment: Pregnancy outcomes; assay type: in vivo, mouse; settings: for Dead fetuses/litter / Fetus weight / Implantations/litter / Live fetuses/litter / Resorptions/litter: mean ± SD
# various animal models = settings: cited from earlier work
# [7] = 1/3.28 of LD50 (VCD 304.6 mg/kg) p.o. GD 4–17
# [8] = 1/4.36 of LD50 (RIS 14.5, VCD 229.2 mg/kg) p.o. GD 4–17
# [9] = 1/6.54 of LD50 (RIS 9.6, OLA 32.1, VCD 152.8 mg/kg) p.o. GD 4–17
smiles,measurement,setting,value
"CCC(C)C(CC)C(N)=O (stereo not drawn) [VCD, 2-ethyl-3-methylpentamide]","All vertebra: incomplete ossification, affected fetuses",SWV mouse fetuses [1]; [7],0
same,"Cervical vertebra: ossified fusion of centrums, affected fetuses",SWV mouse fetuses [1]; [7],1/1
same,"Cervical vertebra: ossified fusion of centrums, affected litters",SWV mouse fetuses [1]; [7],1/1
same,"Fetuses with skeletal abnormalities, %",SWV mouse fetuses [1]; [7],8.6%
same,"Fibula: bent, affected fetuses",SWV mouse fetuses [1]; [7],0
same,"Metacarpal: absent ossification, affected fetuses",SWV mouse fetuses [1]; [7],1/1
same,"Metacarpal: absent ossification, affected litters",SWV mouse fetuses [1]; [7],1/1
same,"Metacarpal: incomplete ossification, affected fetuses",SWV mouse fetuses [1]; [7],0
same,"Metatarsal: absent ossification, affected fetuses",SWV mouse fetuses [1]; [7],1/1
same,"Metatarsal: absent ossification, affected litters",SWV mouse fetuses [1]; [7],1/1
same,"Metatarsal: incomplete ossification, affected fetuses",SWV mouse fetuses [1]; [7],0
same,"Ribs: absent 13th, affected fetuses",SWV mouse fetuses [1]; [7],0
same,"Ribs: branched, affected fetuses",SWV mouse fetuses [1]; [7],0
same,"Skull: incomplete ossification, affected fetuses",SWV mouse fetuses [1]; [7],0
same,"Skull: interparietal incomplete ossification, affected fetuses",SWV mouse fetuses [1]; [7],1/1
same,"Skull: interparietal incomplete ossification, affected litters",SWV mouse fetuses [1]; [7],1/1
same,"Skull: parietal incomplete ossification, affected fetuses",SWV mouse fetuses [1]; [7],0
same,"Skull: supraoccipital incomplete ossification, affected fetuses",SWV mouse fetuses [1]; [7],0
same,"Sternebra: absent ossification, affected fetuses",SWV mouse fetuses [1]; [7],1/1
same,"Sternebra: absent ossification, affected litters",SWV mouse fetuses [1]; [7],1/1
same,"Sternebra: incomplete ossification, affected fetuses",SWV mouse fetuses [1]; [7],1/1
same,"Sternebra: incomplete ossification, affected litters",SWV mouse fetuses [1]; [7],1/1
same,"Sternebra: misaligned, affected fetuses",SWV mouse fetuses [1]; [7],0
same,"Sternebra: misshapen, affected fetuses",SWV mouse fetuses [1]; [7],3
same,"Sternebra: misshapen, affected litters",SWV mouse fetuses [1]; [7],2
same,"Whole skeletal system: incomplete ossification, affected fetuses",SWV mouse fetuses [1]; [7],0
same,"All vertebra: incomplete ossification, affected fetuses",SWV mouse fetuses [1]; [8],0
same,"Cervical vertebra: ossified fusion of centrums, affected fetuses",SWV mouse fetuses [1]; [8],0
same,"Fibula: bent, affected fetuses",SWV mouse fetuses [1]; [8],1/1
same,"Fibula: bent, affected litters",SWV mouse fetuses [1]; [8],1/1
same,"Metacarpal: absent ossification, affected fetuses",SWV mouse fetuses [1]; [8],0
same,"Metacarpal: incomplete ossification, affected fetuses",SWV mouse fetuses [1]; [8],0
same,"Metatarsal: absent ossification, affected fetuses",SWV mouse fetuses [1]; [8],0
same,"Metatarsal: incomplete ossification, affected fetuses",SWV mouse fetuses [1]; [8],0
same,"Ribs: absent 13th, affected fetuses",SWV mouse fetuses [1]; [8],3/3
same,"Ribs: absent 13th, affected litters",SWV mouse fetuses [1]; [8],3/3
same,"Ribs: branched, affected fetuses",SWV mouse fetuses [1]; [8],1/1
same,"Ribs: branched, affected litters",SWV mouse fetuses [1]; [8],1/1
same,"Skull: incomplete ossification, affected fetuses",SWV mouse fetuses [1]; [8],1/1
same,"Skull: incomplete ossification, affected litters",SWV mouse fetuses [1]; [8],1/1
same,"Skull: interparietal incomplete ossification, affected fetuses",SWV mouse fetuses [1]; [8],0
same,"Skull: parietal incomplete ossification, affected fetuses",SWV mouse fetuses [1]; [8],0
same,"Skull: supraoccipital incomplete ossification, affected fetuses",SWV mouse fetuses [1]; [8],0
same,"Sternebra: absent ossification, affected fetuses",SWV mouse fetuses [1]; [8],0
same,"Sternebra: incomplete ossification, affected fetuses",SWV mouse fetuses [1]; [8],3
same,"Sternebra: incomplete ossification, affected litters",SWV mouse fetuses [1]; [8],2
same,"Sternebra: misaligned, affected fetuses",SWV mouse fetuses [1]; [8],0
same,"Sternebra: misshapen, affected fetuses",SWV mouse fetuses [1]; [8],6
same,"Sternebra: misshapen, affected litters",SWV mouse fetuses [1]; [8],4
same,"All vertebra: incomplete ossification, affected fetuses",SWV mouse fetuses [1]; [9],0
same,"Cervical vertebra: ossified fusion of centrums, affected fetuses",SWV mouse fetuses [1]; [9],0
same,"Fibula: bent, affected fetuses",SWV mouse fetuses [1]; [9],0
same,"Metacarpal: absent ossification, affected fetuses",SWV mouse fetuses [1]; [9],0
same,"Metacarpal: incomplete ossification, affected fetuses",SWV mouse fetuses [1]; [9],0
same,"Metatarsal: absent ossification, affected fetuses",SWV mouse fetuses [1]; [9],0
same,"Metatarsal: incomplete ossification, affected fetuses",SWV mouse fetuses [1]; [9],0
same,"Ribs: absent 13th, affected fetuses",SWV mouse fetuses [1]; [9],3
same,"Ribs: absent 13th, affected litters",SWV mouse fetuses [1]; [9],1
same,"Ribs: branched, affected fetuses",SWV mouse fetuses [1]; [9],1/1
same,"Ribs: branched, affected litters",SWV mouse fetuses [1]; [9],1/1
same,"Skull: incomplete ossification, affected fetuses",SWV mouse fetuses [1]; [9],6
same,"Skull: incomplete ossification, affected litters",SWV mouse fetuses [1]; [9],2
same,"Skull: interparietal incomplete ossification, affected fetuses",SWV mouse fetuses [1]; [9],1/1
same,"Skull: interparietal incomplete ossification, affected litters",SWV mouse fetuses [1]; [9],1/1
same,"Skull: parietal incomplete ossification, affected fetuses",SWV mouse fetuses [1]; [9],0
same,"Skull: supraoccipital incomplete ossification, affected fetuses",SWV mouse fetuses [1]; [9],1/1
same,"Skull: supraoccipital incomplete ossification, affected litters",SWV mouse fetuses [1]; [9],1/1
same,"Sternebra: absent ossification, affected fetuses",SWV mouse fetuses [1]; [9],2/2
same,"Sternebra: absent ossification, affected litters",SWV mouse fetuses [1]; [9],2/2
same,"Sternebra: incomplete ossification, affected fetuses",SWV mouse fetuses [1]; [9],0
same,"Sternebra: misaligned, affected fetuses",SWV mouse fetuses [1]; [9],1/1
same,"Sternebra: misaligned, affected litters",SWV mouse fetuses [1]; [9],1/1
same,"Sternebra: misshapen, affected fetuses",SWV mouse fetuses [1]; [9],0
same,"Fetuses with skeletal abnormalities, %","SWV mouse fetuses [1]; mouse, in vivo",10.4% and 11.1%
same,"Whole skeletal system: incomplete ossification, affected fetuses","SWV mouse fetuses [1]; mouse, in vivo",0
same,Embryotoxicity,NMRI mice,did not induce any embryotoxicity
same,Tolerated daily dose with minimal side effects,[2],1500 mg
same,Dams net weight gain,pregnant SWV mice [3]; [7],8.6 ± 1.8 grams
same,Dams weight GD 18,pregnant SWV mice [3]; [7],48.2 ± 2.9 grams
same,Dams weight gain,pregnant SWV mice [3]; [7],20.5 ± 3.5 grams
same,Dams net weight gain,pregnant SWV mice [3]; [8],7.8 ± 2.1 grams
same,Dams weight GD 18,pregnant SWV mice [3]; [8],47.3 ± 4.2 grams
same,Dams weight gain,pregnant SWV mice [3]; [8],20.1 ± 2.9 grams
same,Dams net weight gain,pregnant SWV mice [3]; [9],7.9 ± 2.1 grams
same,Dams weight GD 18,pregnant SWV mice [3]; [9],48.5 ± 3.4 grams
same,Dams weight gain,pregnant SWV mice [3]; [9],20.2 ± 3.0 grams
same,"Ki, uncompetitive inhibition of acylation of arachidonic acid",acyl-CoA synthetase 4,6.38 mM
same,"LD50 mouse, oral",mouse,999 mg/kg
same,"Cleft palate, affected fetuses","SWV mouse fetuses [4]; female, SWV",0
same,"Dilated renal pelvis, affected litters","SWV mouse fetuses [4]; female, SWV",2/2
same,"Exencephaly, affected fetuses","SWV mouse fetuses [4]; female, SWV",0
same,"Malposition stomach, affected litters","SWV mouse fetuses [4]; female, SWV",1/1
same,"Right aortic arch, affected litters","SWV mouse fetuses [4]; female, SWV",1/1 ^b
same,Overall teratogenicity under the experimental conditions,SWV mouse fetuses [4]; po,did not show any teratogenic effect
same,Inhibition of HDACs,[5],does not inhibit
same,Fetuses sex ratio F/M,pregnant SWV mice [6]; [7],57/73
same,Dead fetuses/litter,pregnant SWV mice [6]; [7],0.1 ± 0.2
same,Fetus weight,pregnant SWV mice [6]; [7],0.91 ± 0.06 g
same,Implantations/litter,pregnant SWV mice [6]; [7],14.5 ± 1.7
same,Live fetuses/litter,pregnant SWV mice [6]; [7],13.2 ± 2.8
same,Resorptions/litter,pregnant SWV mice [6]; [7],1.2 ± 1.4
same,Fetuses sex ratio F/M,pregnant SWV mice [6]; [8],58/77
same,Dead fetuses/litter,pregnant SWV mice [6]; [8],0.1 ± 0.3
same,Fetus weight,pregnant SWV mice [6]; [8],0.90 ± 0.07 g
same,Implantations/litter,pregnant SWV mice [6]; [8],14.8 ± 1.6
same,Live fetuses/litter,pregnant SWV mice [6]; [8],13.7 ± 2.0
same,Resorptions/litter,pregnant SWV mice [6]; [8],0.9 ± 0.8
same,Fetuses sex ratio F/M,pregnant SWV mice [6]; [9],71/73
same,Dead fetuses/litter,pregnant SWV mice [6]; [9],0.2 ± 0.4
same,Fetus weight,pregnant SWV mice [6]; [9],0.91 ± 0.07 g
same,Implantations/litter,pregnant SWV mice [6]; [9],14.9 ± 1.7
same,Live fetuses/litter,pregnant SWV mice [6]; [9],13.8 ± 2.1
same,Resorptions/litter,pregnant SWV mice [6]; [9],1.0 ± 0.9
same,Anticonvulsant potency relative to VPA,various animal models,3–10 times
